Legend:
orthotopic GL261 glioma = assay: Orthotopic glioma model: survivability and tumor lesions; type: in vivo, C57BL/6J mice; details: 5 injections, sacrificed on 12th day; H8 8 mg/Kg
From the text: Further, to observe the orthotopic brain tumor growth inhibitory efficiency of presently described SR-targeting CH8, we checked survivability among brain tumor-bearing mice following 5 alternate dosing of various treatment groups. Herein, the intraperitoneal injections started on 4th day until 12th day (total 5 injections) since stereotactic-based inoculation of GL261 cells in brain. […] In another set of experiment, animals bearing brain in situ GL261 cells and having 5 injections of various treatments were sacrificed on 12th day to visualize the status of tumor lesions in full brains obtained from respective treatment groups. […] Clearly, the visual effect of respective treatments has reflected on overall survivability of treated mice.

CHO, HEK293 = assay: MTT cytotoxicity assay in non-cancer cells; type: cell-based; details: same concentration ranges

In the case of O=C(CCCN1CCC(O)(c2ccc(Cl)cc2)CC1)c1ccc(F)cc1 [H8], the “Tumor sites / lesions in isolated brains” value (orthotopic GL261 glioma) is reported as “comparable effect on tumor sites” and the “Cytotoxic effects in non-cancer cells” value (CHO, HEK293) is reported as “negligible”.
